Reference: patent publication US20160151347A1, “PHARMACEUTICAL COMPOUNDS” (ISIS Innovation LTD, priority 2013, published 2016)

Tests used:
[1] = system: human patient with sinus tachycardia; assay: Case report: heart rate (ECG) of a human patient with sinus tachycardia and systemic lupus erythematosus
Source text: The heart rate of a mammal is defined as the number of heart beats per unit of time, usually heart beats per minute (bpm). The heart rate or number of heart beats per unit of time can be determined using methods known in the art. Such a method may involve the simple measurement of a mammal's pulse. Alternatively, heart rate may be measured through the use of an electrocardiograph (ECG), which is readily available to those skilled in the art. Such a method involves counting the number of QRS complexes in the ECG.
The patient was a person with no previous history of cardiac related disease.
Furthermore, the glyceryl trinitrate spray was used whenever angina symptoms were experienced.
In June 2009, the patient was diagnosed with systemic lupus erythematosus.
On Aug. […] On Aug. […] On Sep.

If current = If current recordings, perforated patch voltage clamp in single isolated sinoatrial node cells; assay type: cell-based, guinea pig; conditions: for reduction in If current: 1 μM, 5 min exposure, n=7
[2] = system: isolated guinea-pig sino-atrial node cells; assay: Action potential recordings, current clamp in single isolated sino-atrial node cells; assay type: cell-based; conditions: 1 μM
Protocol: Male guinea pigs (350-500 g) were sacrificed by concussion followed by cervical dislocation. The heart was rapidly excised and encouraged to beat several times in heparin-containing zero-Ca ^2+ modified Tyrode solution to prevent clotting (10 U/mL). The heart was mounted via the aorta on a constant pressure Langendorff system for retrograde perfusion, with solutions maintained at body temperature. After 2 minutes initial wash with zero Ca ^2+ solution (in mM: NaCl 136, KCI 5.4, NaHCO3 12, Na^+ pyruvate 1, NaH2PO4 1, MgCl2 1, EGTA 0.04, glucose 5; gassed with 95% O2/5% CO2 to maintain a pH of 7.4), perfusion was switched to re-circulation with collagenase solution (same as zero Ca^2+ but with 27 mg collagenase/50 mL—type II Worthington, Worthington Biochemical Corp., Lakewood, N.J., USA—0.1 mM CaCl2 and no EGTA).
Following 25 minutes enzymatic digestion, the right atrium, vena-cavae and pulmonary artery were dissected away from the ventricles. The right atrium was pinned in a Sylgard-coated bath, opened by anterior incision, and the SA node identified from anatomical features and tissue appearance. Under a binocular microscope, the SA node appears as a translucent, smooth, white structure in contrast to the thicker, pinker surrounding atrial tissue. The SA node was dissected into thin strips 2×5 mm) and stored in a high potassium medium (in mM: KCI 70, MgCl2 5, K^+ glutamine 5, taurine 20, EGTA 0.04, succinic acid 5, KH2PO4 20, HEPES 5, glucose 10; pH to 7.2 with KOH). Isolation of single SA node myocytes was carried out by gentle trituration.
For all single cell experiments, cells were transferred to a glass coverslip and superfused with oxygenated PSS at 34 ±1° C. using a gravity-fed system running at 2-3 mL/min. HCQ was applied via superfusion, with an electronic switching mechanism resulting in full solution exchange over a period of less than 20 seconds.
Perforated patch clamp recordings were carried out using electrodes pulled from filamented borosilicate glass capillary tubing (GC100 F, Harvard Apparatus Ltd, Kent) using a two-stage vertical puller (Narishige, Japan). […]
Micropipettes were mounted in a Perspex holder containing an Ag/AgCl wire and connected to a CV203BU headstage. All recordings were carried out using an AxoPatch 200B microelectrode system, digitised with a Digidata 1200 A-D converter, and recorded using PCIamp7 software at a sampling rate of 2 kHz (All products in this paragraph, Axon Instruments). […]
Action potentials were recorded from single guinea pig SA node cells under current clamp conditions using the AxoPatch200B microelectrode system and rate measured in Hz using spectral analysis. […]

[3] = system: mouse atrial tissue preparations with intact sino-atrial node; assay: Spontaneous beating rate of isolated mouse atrial preparations (tension transducer); assay type: cell-based; conditions: for reduction in beating rate from control: n=7 (Example 5); for decrease in spontaneous frequency: 30 minute exposure, n=6 (Example 3)
Source text: (§1) Male CD-1 mice (7-9 weeks of age) were terminated by concussion followed by dislocation. The chest cavity was opened and heparinised solution (10 U/mL) applied around the heart to minimise clotting during dissection. The heart was rapidly excised and placed in warm, oxygenated modified Tyrode solution (PSS, in mM: NaCl 125, NaHCO3 25, KCl 5.4, NaH2PO4 1.2, MgCl2 1, glucose 5.5, CaCl2 1.8, pH to 7.4 with NaOH and oxygenated with 95% O2/5% CO2), the ventricular tissue discarded and the sino-atrial node region cleared of any overlying tissue.
Loops of thin suture were tied to the lateral edges of each atrium by directly knotting around a small area of the tissue, taking care to avoid contact with the node itself. One loop was anchored to a hook, which also provided oxygenation to the organ bath, and the other tied to a tension transducer. The preparation was hung in an organ bath filled with PSS, maintained at 37° C. Tension data was digitised using a PowerLabs bridge amplifier and recorded on Chart5 software (all from ADlnstruments, UK). Beating rate was calculated in real-time from the upstroke of the tension signal using the Chart5 Ratemeter function.
Spontaneously-beating atrial preparations were allowed to stabilise for 20 minutes, solution was exchanged for fresh, warmed, PSS and the preparation was again allowed to stabilise for 30 minutes. Drugs were added directly to the organ bath by pipette and allowed to equilibrate for 30 minutes before rate data was sampled.
Male CD-1 mice (7-9 weeks of age) were terminated by concussion followed by dislocation.
as §1, with “The” for “Male CD-1 mice (7-9 weeks of age) were terminated by concussion followed by dislocation. The”

male Sprague-Dawley rats = assay: Rat in-vivo blood pressure and heart rate study (anaesthetised, carotid cannula)
Protocol: Data was acquired (200 Hz) in real time using a Biopac M100 system connected to a Dell P4 computer using AcqKnowledge software. Heart rate was triggered from the arterial blood pressure signal. Intravenous access was gained via the left external jugular vein using a 3 F cannula. After an equilibration period of at least 10 minutes, hydoxychloroquine (dissolved in sterile normal saline for injection and warmed to body temperature) was given as intravenous boluses over 30 seconds (1-30 mg/kg). […] Once a stable response had been reached, measurements were taken as an average over 30 seconds. On completion of the protocol, animals were euthanised with intraperitoneal injection of pentobarbitone. […] Data was acquired (200 Hz) in real time using a Biopac M100 system connected to a Dell P4 computer using AcqKnowledge software. Heart rate was triggered from the arterial blood pressure signal. Intravenous access was gained via the left external jugular vein using a 3 F cannula. After an equilibration period of at least 10 minutes, hydoxychloroquine (dissolved in sterile normal saline for injection and warmed to body temperature) was given as intravenous boluses over 30 seconds (1-30 mg/kg). […] Once a stable response had been reached, measurements were taken as an average over 30 seconds. On completion of the protocol, animals were euthanised with intraperitoneal injection of pentobarbitone.

C57BL/6 mice = system: C57BL/6 mice; parameters: species or system mouse; conditions: in vivo
Source text: Automated non-invasive tail cuff plethysmography (Visitech 2000, Visitech, USA) was used to determine systolic blood pressure in response to HCQ in drinking water when compared to a control group (n=9/group). C57BL/6 mice were habituated for 5 days and then underwent measurements alternate day for 28 days. All measurements were taken in the morning at the same time of day. Twenty measurements were taken, the first 10 discarded and an average of valid recordings then taken for analysis.
We assessed safety by performing long term feeding of mice at 100 mg/kg daily for 28 days with HCQ (FIG. 9) and measuring blood pressure by tail cuff plethysmography.

[4] = 3 μM, 5 mins superfusion, n=4 cells

With `CC(C)NCC(O)COc1ccc(CC(N)=O)cc1` (centres unmarked) [atenolol] the side effects experienced ([1]; patient on atenolol) was “tiredness associated with the onset of use of atenolol, low blood pressure and increased effects of Raynaud's syndrome” and the heart rate ([1]; patient treated with atenolol and a glyceryl trinitrate spray, about 118 bpm at rest before) was 70-80 bpm.

For `CCN(CCO)CCCC(C)Nc1ccnc2cc(Cl)ccc12` (centres unmarked) [hydroxychloroquine, 2-[{4-[(7-chloroquinolin-4-yl)amino]pentyl}(ethyl)amino]ethanol], the heart rate ([1]; 200 mg daily resumed Aug. 4, 2010, measured Sep. 16, 2010) was 80-88 bpm, the stable heart rate ([1]; 200 mg daily, August 2010 until December 2010) was 70-85 bpm and the heart rate ([1]; 200 mg to 400 mg Plaquenil per day, Atenolol completely ceased) was 70-80 bpm. For the same compound, the recorded heart rate ([1]; dose halved to 100 mg per day, ECG Aug. 3, 2010) was 109 bpm, the “reduction in If current” value (If current; −80 mV voltage step) was 20+/−4% and the “reduction in If current” value (If current; −100 mV step) was 12+/−4%. The “maximal conductance of I(f)” value (If current; [4]) was 85±6 % of control, the “voltage of half-activation (V50) and slope of conductance” value (If current; [4]) was “unchanged” and the “reduction in cellular beating rate (action potential firing rate)” value ([2]; 3 mins of exposure, n=6) was 10±3%. For the same compound, the “lengthening in the time taken to reach 50% repolarisation” value ([2]; 5 min superfusion) was 11+/-3%, the “reduction in the slope of spontaneous diastolic depolarization” value ([2]; 5 min superfusion) was 25+/−3% and the “reduction in rate of spontaneous action potential generation (cellular beating rate)” value ([2]; 5 min superfusion, n=6, listed as HCQ) was 17±6%. The “reduction in beating rate from control” value ([3]; 3 μM cumulative dose) was 9±3%, the “decrease in spontaneous frequency” value ([3]; 3 μM) was 11% and the “reduction in beating rate from control” value ([3]; 10 μM cumulative dose) was 15±2%. The “decrease in spontaneous frequency” value ([3]; 10 μM) was 20%, the “cumulative dose at which a significant transient reduction in heart rate is observed” value (male Sprague-Dawley rats; cumulative intravenous doses) was at least 7.5 mg/kg and the “effect on blood pressure at low doses” value (male Sprague-Dawley rats; low intravenous doses (1-15 mg), n=6) was “without an effect on blood pressure”. For the same compound, the “effect on blood pressure at very high doses” value (male Sprague-Dawley rats; very high intravenous doses) was “an effect on blood pressure (which recovers over time)”, the “systolic blood pressure, baseline” value (C57BL/6 mice; C57BL/6, mouse) was 109.7±2.89 mmHg and the start weight (C57BL/6 mice; mouse) was 27.72 ± 0.36 g.
